According to PubChem BioAssay (NCI):
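Exposure lasted 48 hours, with cells grown in 96-well plates and compounds tested at five concentrations. At the GI50, growth is halved. Definition used: TGI = concentration required for complete inhibition of growth.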

Legend:
Test in all cases: DTP human tumour cell line panel, 48 h
MDA-MB-435 = test system: MDA-MB-435
HCT-15 colon = test system: HCT-15 colon
SF-539 CNS = test system: SF-539 CNS
MDA-MB-231 breast = test system: MDA-MB-231 breast
UO-31 renal = test system: UO-31 renal
SNB-75 CNS = test system: SNB-75 CNS
NCI-H522 lung = test system: NCI-H522 lung
DU-145 prostate = test system: DU-145 prostate
U251 CNS = test system: U251 CNS
A498 renal = test system: A498 renal
MCF7 breast = test system: MCF7 breast
PC-3 prostate = test system: PC-3 prostate
UACC-62 melanoma = test system: UACC-62 melanoma
EKVX NSCLC = test system: EKVX NSCLC
NCI/ADR-RES ovarian = test system: NCI/ADR-RES ovarian
SF-295 CNS = test system: SF-295 CNS
HCT-116 colon = test system: HCT-116 colon
SW-620 colon = test system: SW-620 colon
SNB-19 CNS = test system: SNB-19 CNS
NCI-H226 lung = test system: NCI-H226 lung
NCI-H23 lung = test system: NCI-H23 lung
KM12 colon = test system: KM12 colon
OVCAR-4 ovarian = test system: OVCAR-4 ovarian
TK-10 renal = test system: TK-10 renal
RPMI-8226 leukemia = test system: RPMI-8226 leukemia
A549 NSCLC = test system: A549 NSCLC
M14 melanoma = test system: M14 melanoma
UACC-257 melanoma = test system: UACC-257 melanoma
HL-60(TB) leukemia = test system: HL-60(TB) leukemia
SF-268 CNS = test system: SF-268 CNS
HOP-62 NSCLC = test system: HOP-62 NSCLC
SK-MEL-28 melanoma = test system: SK-MEL-28 melanoma
OVCAR-8 ovarian = test system: OVCAR-8 ovarian
HOP-92 NSCLC = test system: HOP-92 NSCLC
786-0 renal = test system: 786-0 renal
NCI-H460 lung = test system: NCI-H460 lung
SK-MEL-5 melanoma = test system: SK-MEL-5 melanoma
BT-549 breast = test system: BT-549 breast
HS 578T breast = test system: HS 578T breast
OVCAR-3 ovarian = test system: OVCAR-3 ovarian
HCC-2998 colon = test system: HCC-2998 colon
CCRF-CEM leukemia = test system: CCRF-CEM leukemia
MALME-3M melanoma = test system: MALME-3M melanoma
ACHN renal = test system: ACHN renal
HT29 colon = test system: HT29 colon
RXF 393 renal = test system: RXF 393 renal
SK-MEL-2 melanoma = test system: SK-MEL-2 melanoma
MOLT-4 leukemia = test system: MOLT-4 leukemia
OVCAR-5 ovarian = test system: OVCAR-5 ovarian
CAKI-1 renal = test system: CAKI-1 renal
COLO 205 colon = test system: COLO 205 colon
SK-OV-3 ovarian = test system: SK-OV-3 ovarian
K-562 leukemia = test system: K-562 leukemia
IGROV1 ovarian = test system: IGROV1 ovarian
SN12C renal = test system: SN12C renal
T-47D breast = test system: T-47D breast
LOX IMVI melanoma = test system: LOX IMVI melanoma

COC(=O)CCC(=O)c1c(C)[nH]c(/C=C2\N=C(c3ccc[nH]3)C=C2OC)c1C showed a GI50 (MDA-MB-435) of 426 nM, a TGI (MDA-MB-435) of 1630 nM and a GI50 (HCT-15 colon) of 292 nM. The TGI (HCT-15 colon) was 1890 nM, the GI50 (SF-539 CNS) was 1180 nM and the TGI (SF-539 CNS) was 3030 nM. The GI50 (MDA-MB-231 breast) was 385 nM, the TGI (MDA-MB-231 breast) was 2640 nM and the GI50 (UO-31 renal) was 279 nM. It also gave a TGI (UO-31 renal) of 866 nM, a GI50 (SNB-75 CNS) of 971 nM and a TGI (SNB-75 CNS) of 3510 nM. For the same compound, the GI50 (NCI-H522 lung) was 1130 nM, the TGI (NCI-H522 lung) was 2860 nM and the GI50 (DU-145 prostate) was 344 nM. For the same compound, the TGI (DU-145 prostate) was 1800 nM, the GI50 (U251 CNS) was 1080 nM and the TGI (U251 CNS) was 3200 nM. The GI50 (A498 renal) was 7860 nM, the TGI (A498 renal) was 20700 nM and the GI50 (MCF7 breast) was 567 nM. The TGI (MCF7 breast) was 2030 nM, the GI50 (PC-3 prostate) was 647 nM and the TGI (PC-3 prostate) was 2140 nM. It also gave a GI50 (UACC-62 melanoma) of 1370 nM, a TGI (UACC-62 melanoma) of 3490 nM and a GI50 (EKVX NSCLC) of 1100 nM. It also gave a TGI (EKVX NSCLC) of 2940 nM, a GI50 (NCI/ADR-RES ovarian) of 728 nM and a TGI (NCI/ADR-RES ovarian) of 3660 nM. It also gave a GI50 (SF-295 CNS) of 1620 nM, a TGI (SF-295 CNS) of 4080 nM and a GI50 (HCT-116 colon) of 257 nM. The GI50 (SW-620 colon) was 318 nM, the TGI (SW-620 colon) was 1320 nM and the GI50 (SNB-19 CNS) was 3200 nM. For the same compound, the TGI (SNB-19 CNS) was 14200 nM, the GI50 (NCI-H226 lung) was 1080 nM and the TGI (NCI-H226 lung) was 3270 nM. It also gave a GI50 (NCI-H23 lung) of 1790 nM, a TGI (NCI-H23 lung) of 4700 nM and a GI50 (KM12 colon) of 360 nM. The TGI (KM12 colon) was 1720 nM, the GI50 (OVCAR-4 ovarian) was 2120 nM and the TGI (OVCAR-4 ovarian) was 17000 nM. The GI50 (TK-10 renal) was 1180 nM, the TGI (TK-10 renal) was 7740 nM and the GI50 (RPMI-8226 leukemia) was 360 nM. The TGI (RPMI-8226 leukemia) was 1870 nM, the GI50 (A549 NSCLC) was 3080 nM and the TGI (A549 NSCLC) was 10800 nM. For the same compound, the GI50 (M14 melanoma) was 431 nM, the TGI (M14 melanoma) was 1910 nM and the GI50 (UACC-257 melanoma) was 2270 nM. It also gave a TGI (UACC-257 melanoma) of 6370 nM, a GI50 (HL-60(TB) leukemia) of 602 nM and a TGI (HL-60(TB) leukemia) of 2830 nM. For the same compound, the GI50 (SF-268 CNS) was 1030 nM, the TGI (SF-268 CNS) was 3100 nM and the GI50 (HOP-62 NSCLC) was 850 nM. For the same compound, the TGI (HOP-62 NSCLC) was 2330 nM, the GI50 (SK-MEL-28 melanoma) was 1270 nM and the TGI (SK-MEL-28 melanoma) was 3180 nM. For the same compound, the GI50 (OVCAR-8 ovarian) was 754 nM, the TGI (OVCAR-8 ovarian) was 2230 nM and the GI50 (HOP-92 NSCLC) was 486 nM. For the same compound, the TGI (HOP-92 NSCLC) was 1550 nM, the GI50 (786-0 renal) was 552 nM and the TGI (786-0 renal) was 1820 nM. The GI50 (NCI-H460 lung) was 6860 nM, the TGI (NCI-H460 lung) was 40900 nM and the GI50 (SK-MEL-5 melanoma) was 567 nM. For the same compound, the TGI (SK-MEL-5 melanoma) was 1710 nM, the GI50 (BT-549 breast) was 587 nM and the TGI (BT-549 breast) was 2170 nM. For the same compound, the GI50 (HS 578T breast) was 1350 nM, the TGI (HS 578T breast) was 4070 nM and the GI50 (OVCAR-3 ovarian) was 353 nM. For the same compound, the TGI (OVCAR-3 ovarian) was 1700 nM, the GI50 (HCC-2998 colon) was 1410 nM and the TGI (HCC-2998 colon) was 5840 nM. It also gave a GI50 (CCRF-CEM leukemia) of 199 nM, a TGI (CCRF-CEM leukemia) of 2370 nM and a GI50 (MALME-3M melanoma) of 1490 nM. For the same compound, the TGI (MALME-3M melanoma) was 3470 nM, the GI50 (ACHN renal) was 783 nM and the TGI (ACHN renal) was 4180 nM. For the same compound, the GI50 (HT29 colon) was 73.7 nM, the TGI (HT29 colon) was 1480 nM and the GI50 (RXF 393 renal) was 1460 nM. The TGI (RXF 393 renal) was 4030 nM, the GI50 (SK-MEL-2 melanoma) was 349 nM and the TGI (SK-MEL-2 melanoma) was 1740 nM. It also gave a GI50 (MOLT-4 leukemia) of 405 nM, a TGI (MOLT-4 leukemia) of 1850 nM and a GI50 (OVCAR-5 ovarian) of 1480 nM. The TGI (OVCAR-5 ovarian) was 5520 nM, the GI50 (CAKI-1 renal) was 869 nM and the TGI (CAKI-1 renal) was 2950 nM. The GI50 (COLO 205 colon) was 1040 nM, the TGI (COLO 205 colon) was 3290 nM and the GI50 (SK-OV-3 ovarian) was 6160 nM. It also gave a TGI (SK-OV-3 ovarian) of 13800 nM, a GI50 (K-562 leukemia) of 1240 nM and a TGI (K-562 leukemia) of 3180 nM. The GI50 (IGROV1 ovarian) was 365 nM, the TGI (IGROV1 ovarian) was 1600 nM and the GI50 (SN12C renal) was 1450 nM. It also gave a TGI (SN12C renal) of 5380 nM, a GI50 (T-47D breast) of 931 nM and a TGI (T-47D breast) of 4090 nM. It also gave a GI50 (LOX IMVI melanoma) of 66.6 nM and a TGI (LOX IMVI melanoma) of 261 nM.
